Patent publication US20250345295A1, “LMK235 COMPOSITIONS AND METHODS” (UNM Rainforest Innovations, priority 2024, published 2025)

Tested on: differentially expressed genes in TG
Assay: RNAseq gene expression profiling of TG
Type: in vivo, mouse
Description: Gene expression profiling was performed on TG from mice with/without nerve injury during the acute phase (three weeks post injury) in TIC mice and after transition to chronic pain (10 weeks post injury) in FRICT-ION mice by Quick Biology Inc. (Monrovia, CA).
Total RNA from ipsilateral TG was isolated using the Rneasy Mini Kit (Qiagen, Valencia, CA). Gene expression profiling and analysis with RNA was done by Quick Biology Inc. (Monrovia, CA). RNAseq library preparation was performed by Quick Biology Inc. (Monrovia, CA), sequencing was performed using an Illumina HiSeq 4000 at 40 million reads per sample. The reads were first mapped to the latest UCSC transcript set using Bowtie2 version 2.1.0 and the gene expression level was estimated using RSEM v1.2.15. Differentially expressed genes were identified using the edgeR program. Genes showing altered expression with p<0.05 were considered differentially expressed.

[1] = LMK235-Treated FRICT-ION Vs Naive
[2] = LMK235-Treated FRICT-ION Vs Untreated FRICT-ION
[3] = TG RNAseq, FRICT-ION mice treated with LMK235 vs naive, week 10
[4] = TG RNAseq, LMK235-treated vs untreated FRICT-ION mice

What does the source list for `Cc1cc(C)cc(C(=O)NOCCCCCC(=O)NO)c1` [LMK235, N-[[6-(Hydroxyamino)-6-oxohexyl]oxy]-3,5-dimethyl-benzamide]?
Fold-change Arfgef2 [1]: 1.02; Fold-change Astn2 [1]: 1.04; Fold-change Bmp2 [1]: 1.11; Fold-change Bmp3 [1]: −1.23; Fold-change Bmp4 [1]: 1.18; Fold-change Bmp5 [1]: 1.85; Fold-change Cacna1a [1]: −1.06; Fold-change Cacna1g [1]: −1.00; Fold-change Cacna1i [1]: −1.14; Fold-change Cacna1h [1]: −1.11; Fold-change Cacna1d [1]: −1.03; Fold-change Cacnb1 [1]: −1.02; Fold-change Clcn1 [1]: −1.33; Fold-change Clcn2 [1]: −1.11; Fold-change Clic5 [1]: −1.08; Fold-change Eef2 [1]: −1.05; Fold-change Gabra5 [1]: 1.02; Fold-change Gabra6 [1]: 1.18; Fold-change Gabre [1]: −1.22; Fold-change Gabrg1 [1]: 1.26; Fold-change Jakmip1 [1]: 1.02; Fold-change Kcna5 [1]: −1.06; Fold-change Kcnc3 [1]: −1.05; Fold-change Kcnd2 [1]: 1.09; Fold-change Kcnh2 [1]: −1.06; Fold-change Kcnh7 [1]: 1.03; Fold-change Kcnj6 [1]: −1.10; Fold-change Kcnk1 [1]: −1.02; Fold-change Kcns2 [1]: 1.12; Fold-change Kcnv1 [1]: 1.26; Fold-change Kif1b [1]: 1.01; Fold-change Maoa [1]: 1.08; Fold-change Mapk3 [1]: −1.02; Fold-change Mpz [1]: 1.07; Fold-change Nacc2 [1]: −1.05; Fold-change Nav3 [1]: 1.12; Fold-change Ncald [1]: 1.05; Fold-change Ndnf [1]: 1.31; Fold-change Net1 [1]: −1.11; Fold-change Neurod4 [1]: −1.13; Fold-change Nf2 [1]: −1.02; Fold-change Nfasc [1]: −1.09; Fold-change Ngef [1]: −1.06; Fold-change Nkain2 [1]: 1.05; Fold-change Nova1 [1]: 1.04; Fold-change Nras [1]: −1.00; Fold-change Nrep [1]: 1.04; Fold-change Nrg2 [1]: 1.04; Fold-change Nrg3 [1]: 1.09; Fold-change Nrp2 [1]: 1.07; Fold-change Ntrk1 [1]: −1.09; Fold-change Nts [1]: 1.18; Fold-change Plcl1 [1]: 1.12; Fold-change Scn2a1 [1]: 1.10; Fold-change Scn3a [1]: 1.11; Fold-change Scn5a [1]: 1.23; Fold-change Scn7a [1]: 1.07; Fold-change Scn8a [1]: −1.07; Fold-change Scn9a [1]: 1.01; Fold-change Slc6a4 [1]: −1.11; Fold-change Trak1 [1]: −1.05; Fold-change Trpc6 [1]: −1.08; Fold-change Trpm2 [1]: −1.10; Fold-change Trpm3 [1]: 1.12; Fold-change Trpm4 [1]: −1.14; Fold-change Trpm7 [1]: 1.10; Fold-change Trps1 [1]: 1.14; Fold-change Trpv4 [1]: 2.12; Fold-change Trpv6 [1]: −1.07; Fold-change Unc80 [1]: 1.07; Fold-change Arfgef2 [2]: 1.01; Fold-change Astn2 [2]: 1.0; Fold-change Bmp2 [2]: −1.02; Fold-change Bmp3 [2]: −2.70; Fold-change Bmp4 [2]: 1.05; Fold-change Bmp5 [2]: −1.01; Fold-change Cacna1a [2]: −1.16; Fold-change Cacna1g [2]: −1.43; Fold-change Cacna1i [2]: −1.39; Fold-change Cacna1h [2]: −1.49; Fold-change Cacna1d [2]: −1.04; Fold-change Cacnb1 [2]: −1.13; Fold-change Clcn1 [2]: −1.05; Fold-change Clcn2 [2]: 1.01; Fold-change Clic5 [2]: −1.05; Fold-change Eef2 [2]: 1.01; Fold-change Gabra5 [2]: −1.23; Fold-change Gabra6 [2]: 2.08; Fold-change Gabre [2]: 1.10; Fold-change Gabrg1 [2]: 1.14; Fold-change Jakmip1 [2]: −1.10; Fold-change Kcna5 [2]: −1.41; Fold-change Kcnc3 [2]: −1.04; Fold-change Kcnd2 [2]: −1.00; Fold-change Kcnh2 [2]: −1.04; Fold-change Kcnh7 [2]: −1.19; Fold-change Kcnj6 [2]: −1.38; Fold-change Kcnk1 [2]: 1.05; Fold-change Kcns2 [2]: −1.25; Fold-change Kcnv1 [2]: 1.09; Fold-change Kif1b [2]: 1.01; Fold-change Maoa [2]: 1.14; Fold-change Mapk3 [2]: −1.00; Fold-change Mpz [2]: −1.05; Fold-change Nacc2 [2]: −1.00; Fold-change Nav3 [2]: −1.19; Fold-change Ncald [2]: 1.03; Fold-change Ndnf [2]: 1.06; Fold-change Net1 [2]: 1.12; Fold-change Neurod4 [2]: 1.57; Fold-change Nf2 [2]: 1.04; Fold-change Nfasc [2]: −1.02; Fold-change Ngef [2]: −1.34; Fold-change Nkain2 [2]: −1.14; Fold-change Nova1 [2]: 1.04; Fold-change Nras [2]: −1.03; Fold-change Nrep [2]: 1.01; Fold-change Nrg2 [2]: 1.10; Fold-change Nrg3 [2]: −1.00; Fold-change Nrp2 [2]: 1.07; Fold-change Ntrk1 [2]: 1.80; Fold-change Nts [2]: −1.74; Fold-change Plcl1 [2]: 1.13; Fold-change Scn2a1 [2]: −1.04; Fold-change Scn3a [2]: −1.01; Fold-change Scn5a [2]: 1.01; Fold-change Scn7a [2]: −1.07; Fold-change Scn8a [2]: 1.05; Fold-change Scn9a [2]: 1.29; Fold-change Slc6a4 [2]: 4.38; Fold-change Trak1 [2]: −1.01; Fold-change Trpc6 [2]: 1.08; Fold-change Trpm2 [2]: −1.02; Fold-change Trpm3 [2]: 1.19; Fold-change Trpm4 [2]: 1.05; Fold-change Trpm7 [2]: 1.06; Fold-change Trps1 [2]: 1.03; Fold-change Trpv4 [2]: 1.21; Fold-change Trpv6 [2]: −1.19; Fold-change Unc80 [2]: 1.10; Fold change S100a9 (TG RNAseq, FRICT-ION + LMK235 VS FRICT-ION): −2.74; C1q14 RNA level vs naïve [3]: not significantly different from naïve mice; Crhbp RNA level vs naïve [3]: not significantly different form naïve controls; P2rx4 RNA level vs naïve [3]: not different from naïves; Slfn4 RNA level vs naïve [3]: not different from naïve controls; P2rx7 foldchanges (TG RNAseq, LMK235-treated and untreated FRICT-ION mice): minimal and insignificant foldchanges; Bmp2 downregulated, fold [4]: 1.02 fold; Bmp3 downregulated, fold [4]: 2.70 fold; Bmp4 expression change [4]: not affected; Bmp5 downregulated, fold [4]: 1.01 fold; Cacna1a downregulated, fold [4]: 1.16 fold; Cacna1 downregulated, fold [4]: 1.39 fold; Cacna1g downregulated, fold [4]: 1.43 fold; Cacna1h downregulated, fold [4]: 1.49 fold; Cacna1d downregulated, fold [4]: 1.04 fold; CacnbI downregulated, fold [4]: 1.13 fold; Clcn2 upregulated, fold [4]: 1.01 fold; Kcna5 downregulated, fold [4]: 1.41 fold; Kcnd2 downregulated, fold [4]: 1.00 fold; Kcne2 reduced, fold (insignificant) [4]: 1.56 fold; Kcnh7 downregulated, fold [4]: 1.19 fold; Kcnj6 downregulated, fold [4]: 1.38 fold; Kcnk1 upregulated, fold [4]: 1.05 fold; Kcns2 downregulated, fold [4]: 1.25 fold; Maoa upregulated, fold [4]: 1.14 fold; Mpz downregulated, fold [4]: 1.05 fold
